Series [1] is described as follows: In vivo pharmacokinetics study. More on the design: species or system ICR (CD-1) mice. To be noted: for clearance / bioavailability: male, ICR (CD-1), mouse, plasma; for clearance: iv, 15 mg/kg, read-out: CLIV, mouse (in vivo systemic clearance); for clearance / CLIV, mouse (in vivo systemic clearance): IV 15 mg/kg, noncompartmental analysis; for bioavailability: mice, PO 30 mg/kg vs IV 15 mg/kg. Here is the method:
Both the in vivo pharmacokinetics and in vivo pharmacodynamics studies were performed by Eurofins Pharmacology Discovery Services. All mice were provided by BioLasco Taiwan (under Charles River Laboratories Licensee). Animals were acclimated for 3 days prior to use and were confirmed to be in good health. All aspects of this work including housing, experimentation, and animal disposal were performed in general accordance with the “Guide for the Care and Use of Laboratory Animals: Eighth Edition” (National Academies Press, Washington, DC. 2011) in a AAALAC-accredited laboratory animal facility. In addition, the animal care and use protocol was reviewed and approved by the IACUC at Eurofins Pharmacology Discovery Services; IN020-08202020 and ON002-07142023.
Male ICR (CD-1) mice, weighing 30 ± 5 g, were given intravenous (IV), intraperitoneal (IP) or oral gavage (PO) administrations of PROTACs at 15 mg/kg (IV and IP) or 30 mg/kg (PO). Dosing volumes used were 5 mL/kg (IV and IP) and 10 mL/kg (PO). The test compounds were dissolved in 5% DMSO/5% Solutol HS15/90% PBS. Serial blood samples were collected at 0.05, 0.167, 0.5, 1, 2, 4, 8, 12 h postadministration (an additional 24h sample was collected for IV-administered mice). Blood samples were collected from three animals at each time point via facial vein (±50 μL) for the first time points and cardiac puncture (±300 μL) for the final time point and stored in tubes coated with lithium heparin. Within 1h of collection, samples were mixed gently and centrifuged at 2500 g for 15 min at 4 °C. Plasma samples were then harvested and kept frozen at −70 °C until further processing. Samples were processed using acetonitrile precipitation and analyzed by LC–MS/MS. Mean plasma concentrations were plotted as a function of time and the fundamental PK parameters were obtained from a noncompartmental analysis (NCA) using WinNonlin. Free drug levels (C p,u) for SK4454 and SK5527 were calculated by factoring in their plasma protein binding (f u) values using the following formula: C p,u = C p * f u.

A further series deals with T1, AURKA (Homo sapiens, UniProt O14965).
T1 sequence (O14965 1-403): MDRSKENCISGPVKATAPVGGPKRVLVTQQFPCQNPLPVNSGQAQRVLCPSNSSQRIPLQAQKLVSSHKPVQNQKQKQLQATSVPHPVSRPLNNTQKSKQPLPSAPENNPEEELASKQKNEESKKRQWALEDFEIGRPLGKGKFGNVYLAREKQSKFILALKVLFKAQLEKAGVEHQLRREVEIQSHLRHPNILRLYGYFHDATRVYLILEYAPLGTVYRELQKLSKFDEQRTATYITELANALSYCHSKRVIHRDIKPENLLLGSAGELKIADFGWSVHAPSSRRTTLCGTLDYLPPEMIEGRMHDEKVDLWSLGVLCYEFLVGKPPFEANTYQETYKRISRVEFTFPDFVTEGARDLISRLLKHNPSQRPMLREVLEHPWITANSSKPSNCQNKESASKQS
Description: AURKA degradation, Simple Western.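 For AURKA Degradation 24h @1000nM: measured in NGP neuroblastoma cells.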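 For AURKA Degradation 24h @100nM: measured in NGP neuroblastoma cells.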 It is filed as cell-based. The arrangement: Representative Western blot showing levels of endogenous proteins MDR1, MYCN, AURKA, and CRBN in untreated cell lines; endogenous in cells; host or cells: NGP, IMR-32, SJNB-8, SK-N-BE(2)-C, SK-N-SH, SK-N-AS, SJNB-1, RPE, HEK293T. The following applies: for pDC50: AURKA degradation; for time to robust AURKA depletion: IMR-32, 500 nM; for AURKA degradation potency upon cotreatment with tariquidar (in words): 100 nM, 1 μM tariquidar; for AURKA Degradation 24h @100nM / AURKA Degradation 24h @1000nM / AURKA degradation potency upon cotreatment with tariquidar (in words): 24h. In outline: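 Cells treated with compound in medium; lysed in RIPA and analysed by Simple Western (0.8 μg/μL lysate, 0.2 μg/μL for MYCN). Peak areas were normalized to vinculin, giving fold change versus DMSO (mean of 3 experiments); DC50 interpolated from four-parameter dose–response curves.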

Where [2] appears, read: NGP, 24 h treatment, read-out: AURKA DC50.
Where [3] appears, read: SK-N-BE(2)-C, read-out: AURKA DC50 24h.

Values joined by “and” are separate entries in the source; they are usually repeats but may differ in a detail not shown here. Equal entries are not always repeated. Where two headings read alike, the source gives them in different places.

As a reminder, the clearance is the volume of plasma or blood freed of the substance per unit of time. For orientation: Dmax means the largest share of the target that was removed. A higher Dmax goes with a fuller loss of target. The term DC50 denotes the concentration at which degradation of the target reaches its halfway point. For orientation: bioavailability means the share of a dose that reaches the circulation, judged against a reference dose that is usually intravenous. Low readings indicate little systemic uptake, high ones much systemic uptake.

On to `O=C1CCN(c2ccc(N3CCN(CC4CCN(C(=O)[C@]5(Cc6cccc(Nc7nccs7)n6)CC[C@@H](Oc6cccc(Cl)c6F)CC5)CC4)CC3)nc2)C(=O)N1` [PROTAC 24], for which the clearance in series [1] is 22 mL/min/kg. Also, at AURKA, the “AURKA Degradation 24h @100nM” value is on record as 88, the “AURKA Degradation 24h @1000nM” value stood at 93 and the pDC50 is 8,23. For the same compound, on AURKA (NGP, 24 h treatment), the “AURKA degradation activity (in words)” value is reported as “restored degradation activity” and the Dmax was 94%. Besides, the half-maximal degradation concentration (DC50) at AURKA (read-out: AURKA DC50) came to 5.8 nM.
Turning to `O=C1CCN(c2ccc(N3CCN(CC4CN(C(=O)[C@]5(Cc6cccc(Nc7nccs7)n6)CC[C@@H](Oc6cccc(Cl)c6F)CC5)C4)CC3)nc2)C(=O)N1` [PROTAC 23], in series [1], the clearance is 35 mL/min/kg. For the same compound, on AURKA, the “AURKA Degradation 24h @100nM” value stood at 88, the “AURKA Degradation 24h @1000nM” value is 88 and the pDC50 is reported as 8,4. On AURKA (NGP, 24 h treatment), the “AURKA degradation activity (in words)” value is “restored degradation activity” and the Dmax was 90%. For the same compound, the DC50 at AURKA (read-out: AURKA DC50) was determined as 4 nM.
As to `Cc1cc(Nc2ccc(F)c(CC3(C(=O)N4CCC(CN5CCN(c6ccc(N7CCC(=O)NC7=O)cn6)CC5)CC4)CCN(Cc4cccc(Cl)c4F)CC3)n2)n[nH]1` [SK4454], the “CLIV, mouse (in vivo systemic clearance)” value in series [1] (listed as PROTAC 32, 15 mg/kg) was 18.1 mL/min/kg. In series [1], the clearance stood at 18 mL/min/kg and the bioavailability stood at 7%. Also, at AURKA, the “AURKA Degradation 24h @100nM” value turned out to be 88, the “AURKA Degradation 24h @1000nM” value came to 92, the pDC50 is 8,09 and the “time to robust AURKA depletion” value is on record as at most 1 h. On AURKA (NGP, 24 h treatment), the “AURKA DC50” value was “single-digit nanomolar range” and the maximal degradation (Dmax) turned out to be 90%. Further, the DC50 on AURKA (setting [2]) is below 25 nM. Also, the DC50 on AURKA (SJNB-8, read-out: AURKA DC50 24h) is < 25 nM and 23 nM. In addition, the “AURKA degradation potency upon cotreatment with tariquidar (in words)” value at AURKA (SK-N-BE(2)-C) is “significantly enhanced”. Besides, the DC50 at AURKA (setting [3]) stood at 270 nM. Besides, at AURKA (read-out: AURKA DC50), the DC50 was found to be 8.1 nM.
For `O=C1CCC(N2C(=O)c3cccc(OCCOCCOCCOCCNC(=O)[C@]4(Cc5cccc(Nc6nccs6)n5)CC[C@@H](Oc5cccc(Cl)c5F)CC4)c3C2=O)C(=O)N1` (some centres unmarked) [SK2188, reference compound], in series [1], the clearance was 114 mL/min/kg. Further, at AURKA, the “AURKA Degradation 24h @100nM” value turned out to be 86 and the pDC50 is reported as 8,41. In addition, the Dmax on AURKA (NGP, 24 h treatment) came out at 89%. At AURKA (read-out: AURKA DC50), the DC50 came out at 3.9 nM.
In the case of `O=C1CCC(Nc2ccc(N3CCN(C4CN(C(=O)[C@]5(Cc6cccc(Nc7nccs7)n6)CC[C@@H](Oc6cccc(Cl)c6F)CC5)C4)CC3)c(F)c2)C(=O)N1` (some centres unmarked) [PROTAC 18], the clearance in series [1] is 23 mL/min/kg. At AURKA, the “AURKA Degradation 24h @100nM” value turned out to be 88, the “AURKA Degradation 24h @1000nM” value is given as 92 and the pDC50 is given as 8,2. On AURKA (NGP, 24 h treatment), this compound came in with a Dmax of 92%. For the same compound, the DC50 at AURKA (setting [2]) was 6 nM. At AURKA (read-out: AURKA DC50), the DC50 amounted to 6.4 nM.
Turning to `Cc1cc(Nc2ccc(F)c(CC3(C(=O)N4CC(N5CCN(c6ccc(NC7CCC(=O)NC7=O)cc6F)CC5)C4)CCN(Cc4cccc(Cl)c4F)CC3)n2)n[nH]1` (centres unmarked) [PROTAC 29], the clearance in series [1] came to 38 mL/min/kg. For the same compound, on AURKA, the “AURKA Degradation 24h @100nM” value is reported as 78, the “AURKA Degradation 24h @1000nM” value is 84 and the pDC50 is on record as 8,11. In addition, on AURKA (NGP, 24 h treatment), the “AURKA DC50” value is on record as “single-digit nanomolar range” and the Dmax is 87%. In addition, the DC50 at AURKA (read-out: AURKA DC50) came out at 7.8 nM.
As for `Cc1cc(Nc2ccc(F)c(CC3(C(=O)N4CCC(F)(CN5CCN(c6ccc(N7CCC(=O)NC7=O)cn6)CC5)CC4)CCN(Cc4cccc(Cl)c4F)CC3)n2)n[nH]1` [SK5527], the “CLIV, mouse (in vivo systemic clearance)” value in series [1] (listed as PROTAC 33, 15 mg/kg) was found to be 12.2 mL/min/kg. Also, in series [1], the clearance was 12 mL/min/kg. In series [1], this compound gave a bioavailability of 11%. For the same compound, the “AURKA Degradation 24h @100nM” value at AURKA is reported as 88. Also, on AURKA, the “AURKA Degradation 24h @1000nM” value is given as 93. Besides, the pDC50 at AURKA is 8,68. In addition, the DC50 at AURKA (HEK293T, read-out: AURKA DC50 24h) was 17 nM; at AURKA (setting [2]), below 25 nM; at AURKA (RPE, read-out: AURKA DC50 24h), 15 nM; at AURKA (SJNB-1, read-out: AURKA DC50 24h), 56 nM; at AURKA (SK-N-AS, read-out: AURKA DC50 24h), 30 nM; on AURKA (setting [3]), 73 nM. Further, the DC50 came to 23 nM on AURKA (SK-N-SH, read-out: AURKA DC50 24h) and 2.1 nM on AURKA (read-out: AURKA DC50). Also, on AURKA, the “time to robust AURKA depletion” value was at most 1 h. Further, the “AURKA DC50” value at AURKA (NGP, 24 h treatment) is on record as “single-digit nanomolar range”. The Dmax on AURKA (NGP, 24 h treatment) amounted to 89%. Further, the “AURKA degradation potency upon cotreatment with tariquidar (in words)” value at AURKA (SK-N-BE(2)-C) is “significantly enhanced”.

The record behind these values is PMC12670405, “Second-Generation AURKA-Targeting PROTACs: Structural Optimization toward in Vivo Degradation in Neuroblastoma” (Journal of Medicinal Chemistry, 2025).
